ChEMBL document CHEMBL1201862, “PubChem BioAssay data set” (2004)
One block for each molecule: values may come before it. Activity calls are given as the source filed them.

Tests used:
Type in all cases: functional
[1] = target: Serine/threonine-protein kinase TAO1 (Homo sapiens, UniProt Q7L7X3)
[2] = target: Cyclin-dependent kinase 19 (Homo sapiens, UniProt Q9BWU1); test: Navigating the Kinome. Panel member name: CDC2L6
[3] = target: STE20-like serine/threonine-protein kinase (Homo sapiens, UniProt Q9H2G2)
[4] = target: Lymphokine-activated killer T-cell-originated protein kinase (Homo sapiens, UniProt Q96KB5);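 note: value comes from a kinase panel screen in which TOPK was one of the panel members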
[5] = target: Mitogen-activated protein kinase kinase kinase kinase 4 (Homo sapiens, UniProt O95819)
[6] = target: Phosphorylase b kinase gamma catalytic chain, liver/testis isoform (Homo sapiens, UniProt P15735);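 note: PHKG2 measured as one member of a kinome-wide kinase panel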
[7] = target: Serine/threonine-protein kinase D3 (Homo sapiens, UniProt O94806);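 note: determined within a kinase panel screen, with PRKCN as the panel member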
[8] = target: T1, Interleukin-1 receptor-associated kinase 4 (Homo sapiens, UniProt Q9NWZ3)
T1 sequence (Q9NWZ3 whole entry): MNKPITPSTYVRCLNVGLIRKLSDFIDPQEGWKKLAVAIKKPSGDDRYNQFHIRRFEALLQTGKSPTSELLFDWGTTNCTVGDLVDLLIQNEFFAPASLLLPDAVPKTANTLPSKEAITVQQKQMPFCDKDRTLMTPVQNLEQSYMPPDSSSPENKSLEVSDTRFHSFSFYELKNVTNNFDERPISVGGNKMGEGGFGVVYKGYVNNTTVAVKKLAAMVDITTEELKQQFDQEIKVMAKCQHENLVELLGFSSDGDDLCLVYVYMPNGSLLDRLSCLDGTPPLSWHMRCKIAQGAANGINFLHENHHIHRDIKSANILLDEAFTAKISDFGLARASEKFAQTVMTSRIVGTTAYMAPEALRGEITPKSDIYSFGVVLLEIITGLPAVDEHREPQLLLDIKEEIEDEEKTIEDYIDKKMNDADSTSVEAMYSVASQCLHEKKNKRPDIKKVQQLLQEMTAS

[9] = target: Serine/threonine-protein kinase pim-2 (Homo sapiens, UniProt Q9P1W9);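 note: value comes from a broad kinase panel profiling study in which PIM2 was one of the panel members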
[10] = target: Serine/threonine-protein kinase DCLK1 (Homo sapiens, UniProt O15075);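 note: affinity for DCLK1 (listed as DCAMKL1) measured as one member of a kinome-wide kinase profiling panel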
[11] = target: ALK tyrosine kinase receptor (Homo sapiens, UniProt Q9UM73);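 note: ALK tested as one member of a kinase panel screen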
[12] = target: Proto-oncogene tyrosine-protein kinase receptor Ret (Homo sapiens, UniProt P07949);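 note: measured within a kinome-wide profiling panel, RET as the panel member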
[13] = target: Tyrosine-protein kinase receptor TYRO3 (Homo sapiens, UniProt Q06418);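 note: TYRO3 value obtained as one member of a kinome-wide profiling panel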
[14] = target: Hepatocyte growth factor receptor (Homo sapiens, UniProt P08581);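 note: kinase panel profiling across the kinome, with MET as the panel member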
[15] = target: Dual specificity tyrosine-phosphorylation-regulated kinase 1B (Homo sapiens, UniProt Q9Y463); test: Navigating the Kinome. Panel member name: DYRK1B
[16] = target: Leucine-rich repeat serine/threonine-protein kinase 2 (Homo sapiens, UniProt Q5S007);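 note: value from a broad kinome-wide panel profiling study in which LRRK2 was one of the kinases tested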
[17] = target: Cyclin-dependent kinase 8 (Homo sapiens, UniProt P49336); test: Navigating the Kinome. Panel member name: CDK8
[18] = target: Dual specificity protein kinase CLK4 (Homo sapiens, UniProt Q9HAZ1)
[19] = target: Macrophage-stimulating protein receptor (Homo sapiens, UniProt Q04912); test: Navigating the Kinome. Panel member name: MST1R
[20] = target: Dual specificity tyrosine-phosphorylation-regulated kinase 1A (Homo sapiens, UniProt Q13627);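 note: measured against DYRK1A as one member of a broad kinome profiling panel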
[21] = target: Leukocyte tyrosine kinase receptor (Homo sapiens, UniProt P29376); test: Navigating the Kinome. Panel member name: LTK
[22] = target: Tyrosine-protein kinase JAK2 (Homo sapiens, UniProt O60674);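 note: JAK2 tested as one member of a kinase panel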
[23] = target: Tyrosine-protein kinase SYK (Homo sapiens, UniProt P43405)
[24] = target: Testis-specific serine/threonine-protein kinase 2 (Homo sapiens, UniProt Q96PF2);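 note: part of the Navigating the Kinome panel, target entry STK22B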
[25] = target: Tyrosine-protein kinase Lck (Homo sapiens, UniProt P06239);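 note: lck was assayed as one member of a kinase panel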
[26] = target: MAP kinase-activated protein kinase 5 (Homo sapiens, UniProt Q8IW41);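 note: measured as one member of a kinome panel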
[27] = target: Calcium/calmodulin-dependent protein kinase type II subunit delta (Homo sapiens, UniProt Q13557)
[28] = target: T2, Tyrosine-protein kinase JAK3 (Homo sapiens, UniProt P52333)
T2 sequence (P52333 whole entry): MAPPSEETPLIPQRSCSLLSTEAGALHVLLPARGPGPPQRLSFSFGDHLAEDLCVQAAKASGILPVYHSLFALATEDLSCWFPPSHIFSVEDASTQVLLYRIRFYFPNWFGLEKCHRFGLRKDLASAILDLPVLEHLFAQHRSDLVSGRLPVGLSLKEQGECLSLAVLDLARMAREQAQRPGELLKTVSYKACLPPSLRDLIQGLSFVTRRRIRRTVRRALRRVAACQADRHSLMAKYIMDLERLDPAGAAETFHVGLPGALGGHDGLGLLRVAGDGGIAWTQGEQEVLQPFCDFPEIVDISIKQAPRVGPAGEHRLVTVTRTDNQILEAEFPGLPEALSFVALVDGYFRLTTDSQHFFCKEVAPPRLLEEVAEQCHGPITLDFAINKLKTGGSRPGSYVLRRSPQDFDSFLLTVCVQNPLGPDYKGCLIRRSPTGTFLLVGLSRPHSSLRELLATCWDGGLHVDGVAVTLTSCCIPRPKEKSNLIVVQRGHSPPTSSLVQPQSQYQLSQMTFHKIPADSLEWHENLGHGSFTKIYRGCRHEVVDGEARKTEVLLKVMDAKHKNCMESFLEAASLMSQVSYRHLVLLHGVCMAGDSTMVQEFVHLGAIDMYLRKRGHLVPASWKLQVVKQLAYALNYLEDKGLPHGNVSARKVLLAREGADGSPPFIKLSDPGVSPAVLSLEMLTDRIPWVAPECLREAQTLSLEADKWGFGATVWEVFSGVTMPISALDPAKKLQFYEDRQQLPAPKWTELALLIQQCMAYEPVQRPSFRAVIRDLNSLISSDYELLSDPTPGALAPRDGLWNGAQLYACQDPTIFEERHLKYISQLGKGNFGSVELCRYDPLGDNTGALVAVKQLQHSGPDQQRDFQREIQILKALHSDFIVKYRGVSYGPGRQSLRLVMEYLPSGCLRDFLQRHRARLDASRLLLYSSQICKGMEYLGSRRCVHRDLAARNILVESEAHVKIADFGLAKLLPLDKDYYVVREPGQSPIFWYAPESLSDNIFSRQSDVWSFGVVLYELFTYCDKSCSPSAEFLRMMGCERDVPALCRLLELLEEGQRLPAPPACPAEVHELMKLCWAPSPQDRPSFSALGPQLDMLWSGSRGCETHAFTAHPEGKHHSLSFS

[29] = target: Tyrosine-protein kinase Lyn (Homo sapiens, UniProt P07948);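 note: lyn as one member of a kinase panel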
[30] = target: Mitogen-activated protein kinase 9 (Homo sapiens, UniProt P45984);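 note: value from a kinome panel profiling assay, MAPK9 panel entry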
[31] = target: T3, Tyrosine-protein kinase ITK/TSK (Homo sapiens, UniProt Q08881);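 note: affinity for ITK measured as one member of a broad kinase panel profiling binding across the kinome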
T3 sequence (Q08881 whole entry): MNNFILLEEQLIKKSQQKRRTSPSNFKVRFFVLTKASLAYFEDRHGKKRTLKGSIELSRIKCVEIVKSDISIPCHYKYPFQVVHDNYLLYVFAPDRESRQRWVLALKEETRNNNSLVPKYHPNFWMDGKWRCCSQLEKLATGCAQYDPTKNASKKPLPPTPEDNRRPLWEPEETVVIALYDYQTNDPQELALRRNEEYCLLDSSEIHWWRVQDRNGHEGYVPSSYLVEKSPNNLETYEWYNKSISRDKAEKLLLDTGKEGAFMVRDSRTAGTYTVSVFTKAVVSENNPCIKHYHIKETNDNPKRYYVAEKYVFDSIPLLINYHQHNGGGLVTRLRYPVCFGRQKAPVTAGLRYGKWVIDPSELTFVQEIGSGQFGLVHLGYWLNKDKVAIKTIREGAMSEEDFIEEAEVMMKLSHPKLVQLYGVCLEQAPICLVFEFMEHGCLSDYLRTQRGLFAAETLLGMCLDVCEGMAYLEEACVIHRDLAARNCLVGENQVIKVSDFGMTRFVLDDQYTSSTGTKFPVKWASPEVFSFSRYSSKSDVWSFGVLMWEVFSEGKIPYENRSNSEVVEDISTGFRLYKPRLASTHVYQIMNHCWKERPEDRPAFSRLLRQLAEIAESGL

[32] = target: Testis-specific serine/threonine-protein kinase 1 (Homo sapiens, UniProt Q9BXA7)
[33] = target: Mitogen-activated protein kinase 13 (Homo sapiens, UniProt O15264)
[34] = target: Tyrosine-protein kinase Srms (Homo sapiens, UniProt Q9H3Y6);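 note: SRMS measured as one member of a kinome-wide kinase profiling panel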
[35] = target: Receptor tyrosine-protein kinase erbB-2 (Homo sapiens, UniProt P04626); test: Navigating the Kinome. Panel member name: ERBB2
[36] = target: Mitogen-activated protein kinase 1 (Homo sapiens, UniProt P28482)
[37] = target: Interleukin-1 receptor-associated kinase 1 (Homo sapiens, UniProt P51617);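 note: IRAK1 tested as one member of a kinome panel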
Aurora kinase B = Aurora kinase B (Homo sapiens, UniProt Q96GD4)
[38] = target: Tyrosine-protein kinase Fer (Homo sapiens, UniProt P16591);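 note: FER tested as one member of a kinome panel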
Sequence of Tyrosine-protein kinase Fer (P16591 whole entry): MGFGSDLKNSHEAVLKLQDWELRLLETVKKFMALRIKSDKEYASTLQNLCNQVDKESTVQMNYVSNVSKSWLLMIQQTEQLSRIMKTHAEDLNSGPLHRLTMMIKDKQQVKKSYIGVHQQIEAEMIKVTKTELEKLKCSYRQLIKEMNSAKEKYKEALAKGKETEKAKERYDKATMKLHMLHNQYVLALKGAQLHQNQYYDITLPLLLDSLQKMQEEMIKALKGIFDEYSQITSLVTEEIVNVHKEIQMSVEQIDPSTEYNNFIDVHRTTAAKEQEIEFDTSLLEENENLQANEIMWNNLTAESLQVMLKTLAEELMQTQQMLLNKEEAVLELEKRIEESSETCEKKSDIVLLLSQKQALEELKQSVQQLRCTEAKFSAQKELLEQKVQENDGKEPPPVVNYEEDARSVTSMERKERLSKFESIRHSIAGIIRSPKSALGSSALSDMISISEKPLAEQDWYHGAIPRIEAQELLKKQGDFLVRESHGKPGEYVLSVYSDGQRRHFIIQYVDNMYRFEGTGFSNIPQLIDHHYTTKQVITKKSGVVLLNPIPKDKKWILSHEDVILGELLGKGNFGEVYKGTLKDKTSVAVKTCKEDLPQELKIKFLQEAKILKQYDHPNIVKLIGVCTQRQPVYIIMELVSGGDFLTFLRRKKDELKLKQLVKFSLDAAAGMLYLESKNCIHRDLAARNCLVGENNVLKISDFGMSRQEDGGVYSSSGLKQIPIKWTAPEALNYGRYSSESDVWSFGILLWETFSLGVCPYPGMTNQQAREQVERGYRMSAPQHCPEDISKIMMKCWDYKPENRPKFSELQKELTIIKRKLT

Sequence of Lymphokine-activated killer T-cell-originated protein kinase (Q96KB5 whole entry): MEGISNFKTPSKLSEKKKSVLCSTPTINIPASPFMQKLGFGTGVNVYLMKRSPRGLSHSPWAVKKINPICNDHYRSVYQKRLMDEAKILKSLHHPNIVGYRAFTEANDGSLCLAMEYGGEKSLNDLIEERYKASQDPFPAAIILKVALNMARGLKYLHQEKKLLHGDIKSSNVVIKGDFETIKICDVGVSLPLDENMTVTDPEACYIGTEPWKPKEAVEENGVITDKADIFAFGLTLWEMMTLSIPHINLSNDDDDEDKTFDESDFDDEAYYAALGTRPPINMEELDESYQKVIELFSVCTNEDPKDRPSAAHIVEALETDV
Sequence of Dual specificity protein kinase CLK4 (Q9HAZ1 whole entry): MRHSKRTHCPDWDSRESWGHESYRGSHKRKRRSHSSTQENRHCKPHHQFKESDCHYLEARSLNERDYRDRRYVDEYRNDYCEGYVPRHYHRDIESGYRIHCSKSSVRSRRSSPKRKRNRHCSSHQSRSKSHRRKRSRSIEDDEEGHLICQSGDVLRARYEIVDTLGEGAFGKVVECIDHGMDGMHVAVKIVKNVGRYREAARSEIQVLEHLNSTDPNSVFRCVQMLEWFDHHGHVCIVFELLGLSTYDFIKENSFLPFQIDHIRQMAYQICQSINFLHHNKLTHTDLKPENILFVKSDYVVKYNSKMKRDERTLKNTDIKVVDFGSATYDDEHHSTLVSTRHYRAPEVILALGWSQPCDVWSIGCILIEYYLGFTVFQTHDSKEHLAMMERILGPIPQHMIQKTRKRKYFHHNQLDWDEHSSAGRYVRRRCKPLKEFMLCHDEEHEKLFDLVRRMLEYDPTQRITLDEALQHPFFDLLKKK
Sequence of Serine/threonine-protein kinase pim-2 (Q9P1W9 whole entry): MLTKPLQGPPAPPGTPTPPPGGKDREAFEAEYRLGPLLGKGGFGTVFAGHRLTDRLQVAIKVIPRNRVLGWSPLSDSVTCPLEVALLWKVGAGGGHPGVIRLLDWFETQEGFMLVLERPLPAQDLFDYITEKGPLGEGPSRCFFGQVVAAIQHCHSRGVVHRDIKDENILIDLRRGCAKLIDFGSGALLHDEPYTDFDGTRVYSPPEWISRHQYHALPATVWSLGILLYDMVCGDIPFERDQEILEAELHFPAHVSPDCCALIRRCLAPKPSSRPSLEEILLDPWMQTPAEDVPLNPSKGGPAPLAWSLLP
Sequence of Tyrosine-protein kinase receptor TYRO3 (Q06418 whole entry): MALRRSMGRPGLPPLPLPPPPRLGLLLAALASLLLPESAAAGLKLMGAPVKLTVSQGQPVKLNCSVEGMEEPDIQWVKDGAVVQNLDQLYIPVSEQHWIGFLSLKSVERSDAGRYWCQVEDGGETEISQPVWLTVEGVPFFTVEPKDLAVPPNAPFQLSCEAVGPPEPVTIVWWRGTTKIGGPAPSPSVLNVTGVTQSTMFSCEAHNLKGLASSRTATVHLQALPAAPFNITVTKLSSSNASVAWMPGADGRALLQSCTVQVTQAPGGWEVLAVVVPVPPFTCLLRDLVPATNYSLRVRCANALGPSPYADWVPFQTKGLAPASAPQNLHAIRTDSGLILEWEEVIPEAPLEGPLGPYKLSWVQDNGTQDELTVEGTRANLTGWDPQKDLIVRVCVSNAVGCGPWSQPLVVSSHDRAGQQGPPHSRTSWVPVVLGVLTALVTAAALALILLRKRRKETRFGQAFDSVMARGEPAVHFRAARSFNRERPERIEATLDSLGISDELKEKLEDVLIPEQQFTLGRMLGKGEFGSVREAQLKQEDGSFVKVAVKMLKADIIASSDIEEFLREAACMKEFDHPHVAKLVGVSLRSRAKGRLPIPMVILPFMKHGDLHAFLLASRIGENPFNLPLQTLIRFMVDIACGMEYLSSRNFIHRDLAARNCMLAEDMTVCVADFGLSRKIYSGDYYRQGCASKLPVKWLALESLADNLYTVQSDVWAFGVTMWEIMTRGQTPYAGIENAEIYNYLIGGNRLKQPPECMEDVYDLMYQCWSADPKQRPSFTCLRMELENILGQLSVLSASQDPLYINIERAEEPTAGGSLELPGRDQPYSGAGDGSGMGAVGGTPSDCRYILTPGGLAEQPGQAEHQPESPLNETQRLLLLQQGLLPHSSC
Sequence of Tyrosine-protein kinase Srms (Q9H3Y6 whole entry): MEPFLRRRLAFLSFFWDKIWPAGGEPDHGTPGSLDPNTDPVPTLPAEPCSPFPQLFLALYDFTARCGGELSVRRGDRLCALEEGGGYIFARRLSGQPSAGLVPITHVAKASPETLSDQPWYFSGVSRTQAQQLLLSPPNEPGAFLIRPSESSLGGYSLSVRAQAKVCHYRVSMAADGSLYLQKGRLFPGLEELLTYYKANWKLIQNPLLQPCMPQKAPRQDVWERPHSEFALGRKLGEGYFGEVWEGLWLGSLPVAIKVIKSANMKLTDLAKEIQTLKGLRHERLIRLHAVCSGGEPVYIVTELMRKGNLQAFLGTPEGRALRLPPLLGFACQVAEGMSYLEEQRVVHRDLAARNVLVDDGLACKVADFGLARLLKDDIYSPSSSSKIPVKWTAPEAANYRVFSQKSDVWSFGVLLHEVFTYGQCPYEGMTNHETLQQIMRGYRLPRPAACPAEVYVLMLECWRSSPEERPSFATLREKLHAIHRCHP
Sequence of MAP kinase-activated protein kinase 5 (Q8IW41 whole entry): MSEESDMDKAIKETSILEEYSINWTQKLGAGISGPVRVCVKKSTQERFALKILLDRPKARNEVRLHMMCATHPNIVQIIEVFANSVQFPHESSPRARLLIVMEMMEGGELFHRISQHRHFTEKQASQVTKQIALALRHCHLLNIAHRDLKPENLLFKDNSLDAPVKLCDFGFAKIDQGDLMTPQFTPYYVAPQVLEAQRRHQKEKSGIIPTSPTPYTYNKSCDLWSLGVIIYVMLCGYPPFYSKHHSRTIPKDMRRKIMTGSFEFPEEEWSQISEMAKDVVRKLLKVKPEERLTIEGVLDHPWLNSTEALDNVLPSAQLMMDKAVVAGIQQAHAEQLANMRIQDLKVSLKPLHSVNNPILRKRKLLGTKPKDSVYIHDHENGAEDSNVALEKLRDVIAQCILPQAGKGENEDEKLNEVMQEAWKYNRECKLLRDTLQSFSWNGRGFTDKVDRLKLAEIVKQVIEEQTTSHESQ
Sequence of Mitogen-activated protein kinase 13 (O15264 whole entry): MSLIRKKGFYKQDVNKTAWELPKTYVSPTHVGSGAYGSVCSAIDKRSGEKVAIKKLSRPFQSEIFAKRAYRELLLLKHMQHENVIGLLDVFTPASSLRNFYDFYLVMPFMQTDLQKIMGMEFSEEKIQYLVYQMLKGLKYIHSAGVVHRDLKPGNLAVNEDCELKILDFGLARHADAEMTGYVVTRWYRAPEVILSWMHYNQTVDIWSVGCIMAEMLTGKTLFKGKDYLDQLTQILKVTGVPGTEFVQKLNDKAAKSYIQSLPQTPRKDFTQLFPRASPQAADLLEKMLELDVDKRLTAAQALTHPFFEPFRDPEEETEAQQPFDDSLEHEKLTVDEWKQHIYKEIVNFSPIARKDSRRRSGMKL
Sequence of Interleukin-1 receptor-associated kinase 1 (P51617 whole entry): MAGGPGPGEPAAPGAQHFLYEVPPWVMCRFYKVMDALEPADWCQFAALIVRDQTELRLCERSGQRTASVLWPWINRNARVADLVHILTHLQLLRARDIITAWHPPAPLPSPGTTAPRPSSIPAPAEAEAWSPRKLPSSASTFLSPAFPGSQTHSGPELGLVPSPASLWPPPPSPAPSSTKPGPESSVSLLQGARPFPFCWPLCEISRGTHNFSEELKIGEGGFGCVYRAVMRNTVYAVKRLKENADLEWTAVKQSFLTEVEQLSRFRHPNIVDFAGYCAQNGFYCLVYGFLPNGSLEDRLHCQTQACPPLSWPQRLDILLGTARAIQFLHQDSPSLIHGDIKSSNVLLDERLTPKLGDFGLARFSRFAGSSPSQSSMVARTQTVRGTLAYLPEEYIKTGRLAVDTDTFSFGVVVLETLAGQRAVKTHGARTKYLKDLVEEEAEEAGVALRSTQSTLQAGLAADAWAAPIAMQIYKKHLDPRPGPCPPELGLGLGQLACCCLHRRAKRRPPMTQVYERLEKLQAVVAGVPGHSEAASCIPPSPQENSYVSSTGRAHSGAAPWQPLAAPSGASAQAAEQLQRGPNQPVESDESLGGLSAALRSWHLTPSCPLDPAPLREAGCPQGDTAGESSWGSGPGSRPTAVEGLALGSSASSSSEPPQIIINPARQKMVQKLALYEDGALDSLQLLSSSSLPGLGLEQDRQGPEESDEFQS

Ki [1]: 3160 nM (active) | Ki [2]: > 100000 nM (inactive) | Ki [3]: 10000 nM (active) | Ki [5]: 1580 nM (active)
Compound: O=c1[nH]c2ccccc2n2cc(-c3ccc(Cl)cc3)cc12
Ki [4]: 3160 nM (active)

Ki [6]: 5010 nM (active) | Ki [7]: 6310 nM (active) | Ki [8]: 10000 nM (active) | Ki [9]: 1260 nM (active) | Ki [10]: 10000 nM (active)
Compound: CN(c1ccc2[nH]ncc2c1)c1c(NCc2ccc(Cl)cc2Cl)c(=O)c1=O
Ki [4]: 10000 nM (active)

Ki [11]: 100000 nM (active) | Ki [12]: 50100 nM (active) | Ki [13]: 63100 nM (active) | Ki [14]: 79400 nM (active) | Ki [15]: 39800 nM (active) | Ki [16]: 39800 nM (active) | Ki [17]: 63100 nM (active) | Ki [18]: 10000 nM (active) | Ki [19]: 63100 nM (active) | Ki [20]: 39800 nM (active) | Ki [21]: 39800 nM (active)
Compound: O=c1[nH]nc2c(-c3ccccc3)cccn12

Compound: COc1ccc2c(c1)C(=Cc1cnc[nH]1)C(=O)N2
Ki [22]: 501 nM (active) | Ki [23]: > 1580 nM (inactive) | Ki [24]: > 1580 nM (inactive) | Ki [25]: 1580 nM (active) | Ki [26]: > 1580 nM (inactive) | Ki [27]: 1580 nM (active) | Ki [28]: 501 nM (active) | Ki [29]: > 1580 nM (inactive) | Ki [30]: 1580 nM (active) | Ki [31]: > 1580 nM (inactive) | Ki [32]: > 1580 nM (inactive) | Ki [33]: > 7940 nM (inactive) | Ki [34]: > 1580 nM (inactive) | Ki [35]: > 1580 nM (inactive) | Ki [36]: 501 nM (active) | Ki [37]: 1580 nM (active) | Ki (Aurora kinase B): 251 nM (active) | Ki [38]: > 1580 nM (inactive) | Ki [9]: > 1580 nM (inactive) | Ki [18]: 251 nM (active)
